Square brackets hold non-standard residues; d marks the D form. Peptide text beside a SMILES is read from it. * marks the point of attachment. Sta = CC(C)C[C@H](N)[C@@H](O)CC(=O)O; Isovaleryl = CC(C)CC(=O)*
biological target: plasmepsin II (Plasmodium falciparum, UniProt P46925); assay: FRET assay for plasmepsin II; type: biochemical; details: pH 5, 37° C., 40 min, substrate 1 μM
Method: The fluorescence resonance energy transfer (FRET) assay for HIV, plasmepsin II, human cathepsin D and human cathepsin E.
The assay conditions were selected according, to reports in the literature. The FRET assay was performed in white polysorp plates (Fluoronunc, cat n° 437842 A). The assay buffer consisted of 50 mM Na acetate pH 5, 12,5% glycerol, 0.1% BSA+392 mM NaCl (for HIV-protease). The incubates per well were composed of:
10 μl inhibitor (in DMSO)
10 μl of the corresponding substrate in DMSO (see table A) to a final concentration of 1 μM
20 μl of enzyme to a final amount of x ng per assay tube (x=10 ng/assay tube plasmepsin II, x=100 ng/assay tube HIV-protease, x=10 ng/assay tube human cathepsin E and x=20 ng/assay tube human cathepsin D)
The reactions were initiated by addition of the enzyme. The assay was incubated at 37° C. for 30 min (for human cathepsin E), 40 min (for plasmepsin II and HIV-protease) or 120 min (for human cathepsin D). The reactions were stopped by adding 10% (v/v) of a 1 M solution of Tris-base. Product-accumulation was monitored by measuring the fluorescence at 460 nm.
Auto-fluorescence of all the test substances is determined in assay buffer in the absence of substrate and enzyme and this value was subtracted from the final signal.

Sequence of plasmepsin II (P46925 125-453): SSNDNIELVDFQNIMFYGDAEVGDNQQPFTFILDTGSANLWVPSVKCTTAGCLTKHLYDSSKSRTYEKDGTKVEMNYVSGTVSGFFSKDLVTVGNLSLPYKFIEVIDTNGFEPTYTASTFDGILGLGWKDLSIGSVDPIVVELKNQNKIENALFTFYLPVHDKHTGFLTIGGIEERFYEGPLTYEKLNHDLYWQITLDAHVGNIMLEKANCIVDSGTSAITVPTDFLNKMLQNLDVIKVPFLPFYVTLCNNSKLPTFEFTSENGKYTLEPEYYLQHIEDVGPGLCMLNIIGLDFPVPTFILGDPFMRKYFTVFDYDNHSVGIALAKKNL

Question: Which IC50 does the source give for `CCCCCc1ccc(C(=O)N(CCN(CCCC)CCCC)Cc2ccc(OCc3ccccc3)cc2)cc1` [Example 1] here?
Answer: The IC50 was 115 nM.

Question: Which IC50 does the source give for `CCCCCc1ccc(CN(CCN(CCCC)CCCC)Cc2ccc(OCc3ccccc3)cc2)cc1` [Example 20] here?
Answer: Its IC50 is 846 nM.

Question: With `CCCCCc1ccc(C(=O)N(CCN(CCCC)CCCC)Cc2ccc(Oc3ccccc3)cc2)cc1` [Example 21] as the molecule, how does the IC50 read?
Answer: Its IC50 is 469 nM.

Question: For `CCCCCc1ccc(C(=O)N(CCN(CCCC)CCCC)Cc2ccc(OCc3ccccc3)c(OCc3ccccc3)c2)cc1` [Example 22], which IC50 is on record?
Answer: Its IC50 is 858 nM.

Question: Which IC50 does the source give for `CCCCCc1ccc(C(=O)N(CCN(CCCC)CCCC)Cc2ccc(-c3ccccc3)cc2)cc1` [Example 23] here?
Answer: The IC50 was 252 nM.

Question: For `CCCCCc1ccc(C(=O)N(CCN(CCCC)CCCC)Cc2ccc(C(F)(F)F)cc2)cc1` [Example 25], which IC50 is on record?
Answer: Its IC50 is 596 nM.

Question: With `CCCCCc1ccc(C(=O)N(CCN(CCCC)CCCC)Cc2ccc(OCCCC)cc2)cc1` [Example 38] as the molecule, how does the IC50 read?
Answer: The IC50 was 325 nM.

Question: For `CCCCCc1ccc(C(=O)N(CCCN(CCCC)CCCC)Cc2ccc(OCc3ccccc3)cc2)cc1` [Example 51], which IC50 is on record?
Answer: Its IC50 is 691 nM.

Question: With `CCCCCc1ccc(C(=O)N(CCCN(CCCC)CCCC)Cc2ccc(-c3ccccc3)cc2)cc1` [Example 52] as the molecule, how does the IC50 read?
Answer: The IC50 was 834 nM.

Question: Which IC50 does the source give for `CCCCCc1ccc(C(=O)N(CCN(CCCC)CCCC)Cc2ccc(-c3ccc(OCCO)cc3)cc2)cc1` [Example 53] here?
Answer: Its IC50 is 125 nM.

Question: Which IC50 does the source give for `CCCCCc1ccc(C(=O)N(CCN(CCCC)CCCC)Cc2ccc(-c3ccccc3F)cc2)cc1` [Example 54] here?
Answer: The IC50 was 312 nM.

Question: Which IC50 does the source give for `CCCCCc1ccc(C(=O)N(CCN(CCCC)CCCC)Cc2ccc(-c3ccccc3Cl)cc2)cc1` [Example 56] here?
Answer: The IC50 was 659 nM.

Question: For `CCCCCc1ccc(C(=O)N(CCN(CCCC)CCCC)Cc2ccc(-c3cncnc3)cc2)cc1` [Example 57], which IC50 is on record?
Answer: The IC50 was 351 nM.

Question: With `CCCCCc1ccc(C(=O)N(CCN(CCCC)CCCC)Cc2ccc(-c3cccc(OC(F)(F)F)c3)cc2)cc1` [Example 58] as the molecule, how does the IC50 read?
Answer: The IC50 was 754 nM.

Question: Which IC50 does the source give for `CCCCCc1ccc(C(=O)N(CCN(CCCC)CCCC)Cc2ccc(-c3ccccn3)cc2)cc1` [Example 59] here?
Answer: The IC50 was 380 nM.

Question: For `CCCCCc1ccc(C(=O)N(CCN(CCCC)CCCC)Cc2ccc(-c3ccc(CC(=O)OC)cc3)cc2)cc1` [Example 60], which IC50 is on record?
Answer: Its IC50 is 198 nM.

Question: Which IC50 does the source give for `CCCCCc1ccc(C(=O)N(CCN(CCCC)CCCC)Cc2ccc(-c3ccc4c(c3)OCO4)cc2)cc1` [Example 61] here?
Answer: The IC50 was 57 nM.

Question: Which IC50 does the source give for `CCCCCc1ccc(CN(CCN(CCCC)CCCC)Cc2ccc(-c3ccc(C#N)cc3)cc2)cc1` [Example 68] here?
Answer: Its IC50 is 714 nM.

Question: With `CCCCCc1ccc(C(=O)N(CCN(CCO)CCO)Cc2ccc(OCC)cc2)cc1` [Example 69] as the molecule, how does the IC50 read?
Answer: The IC50 was 8230 nM.

test system: P. falciparum; assay: not given; details: cited from earlier work

Question: Which “growth of P. falciparum in red blood cells in vitro” value does the source give for `CC(C)CC(=O)N[C@H](C(=O)N[C@H](C(=O)N[C@@H](CC(C)C)[C@@H](O)CC(=O)N[C@@H](C)C(=O)N[C@@H](CC(C)C)[C@@H](O)CC(=O)O)C(C)C)C(C)C` [Pepstatin] (Isovaleryl-VV[Sta]A[Sta]-OH) here?
Answer: The value was “inhibits the growth”.

Reference: patent US20040067927A1, “Substituted alkyldiamines” (priority 2003, published 2004)
